Data on 18 compounds can be found in ChEMBL document CHEMBL5137099, “Discovery of Novel cccDNA Reducers toward the Cure of Hepatitis B Virus Infection” (J Med Chem, 2022).

SMILES strings stand for the structures. Converted amounts (≈) assume the structure as drawn. The source made the active and inactive calls. No cut-off for these calls is given here.

The nature of data set [1]: Cytotoxicity against human HepDES19 cells assessed as reduction in cell viability measured after 5 days by CCK-8 assay. Format: toxicity, cell-based. The following applies: time 5 day. For orientation: Tetrazolium assays rely on reduction of a dye to a coloured formazan, in cell work by metabolically active cells.
Data set [2] relates to Hepatitis B virus. Kind of data set: Antiviral activity against HBV infected in human HepDES19 cells assessed as reduction in HBV cccDNA production by measuring inhibition of HBeAg secretion incubated for 5 days by ELISA. It counts as functional, organism-based. To be noted: HepDES19, 120 h.
The test system of data set [3] is Hepatitis B virus. Description: Antiviral activity against HBV infected in human HepG2 cells assessed as reduction in HBeAg secretion incubated for 5 days by counter screen assay. Format: functional, organism-based. To be noted: HepG2, 120 h.
Data set [4] is described as follows: Therapeutic index, ratio of CC50 for cytotoxicity against human HepDES19 cells assessed as reduction in cell viability measured after 5 days by CCK-8 assay to IC50 for antiviral activity against HBV infected in human HepDES19 cells assessed as reduction in HBV cccDNA production by measuring inhibition of HBeAg secretion incubated for 5 days by ELISA. It counts as toxicity, cell-based. The following applies: time 5 day, read-out: Ratio CC50/IC50.

The nature of data set [5]: Aqueous solubility of the compound. It counts as physicochemical. To be noted: buffer.
A short description of data set [6]: Permeability of the compound by PAMPA analysis. Format: ADME. To be noted: read-out: permeability. On the technique in general: PAMPA measures passive passage across an artificial lipid membrane.
Data set [7] has as its system Hepatitis B virus. Kind of data set: Antiviral activity against HBV infected in human primary hepatocyte cells assessed as reduction in HBV cccDNA production by measuring inhibition of HBsAg secretion measured after 48 hrs by ELISA. Format: functional, organism-based. In general terms: In an ELISA, binding on a coated surface is turned into a signal by an enzyme label.

A short description of data set [8]: Octanol-aqueous buffer distribution coefficient, log D of the compound at pH 7.4 by CAMDIS assay. Format: physicochemical.
Data set [9] is described as follows: Metabolic stability in mouse hepatocytes assessed as intrinsic clearance. It counts as ADME, cell-based, Hepatocyte. To be noted: read-out: CLH.
Data set [10] relates to Hepatitis B virus. Description: Antiviral activity against HBV infected in human HepDES19 cells assessed as reduction in HBV cccDNA production by measuring inhibition of HBeAg secretion at 0.3 to 10 uM by southern blot analysis. Format: functional, organism-based. The following applies: dose 0.3-10 µM.

Consider `O=C(Nc1ccc2c(=O)c3cccc(F)c3oc2c1)c1ccncc1`, for which the CC50 (in general, the concentration giving 50% cytotoxicity) at 120 h in data set [1] was above 100 µM. Also, the figures for the IC50 with Hepatitis B virus [2] and with Hepatitis B virus [3] were 1.14 µM and above 50 µM, respectively. Moreover, the selectivity ratio at 120 h in data set [4] is above 134. The solubility (in general, the concentration that dissolves in the medium under given conditions) in [5] is below 1 µg/mL.
With `N#Cc1ccc(Cl)c2oc3cc(N4CCC(C(=O)O)C4)ccc3c(=O)c12` (stereo not drawn), in data set [6], the Papp was 0.8 ×10⁻⁶ cm/s. Besides, the IC50 (commonly the concentration at which inhibition is half-maximal) with Hepatitis B virus [2] is 1.1 µM; in the data set on Hepatitis B virus [3] it was above 50 µM; in the data set with Hepatitis B virus [7] it was 12.4 µM. Moreover, the solubility in data set [5] was above 443 µg/mL.
Consider `O=C(Nc1ccc2c(=O)c3cccc(Cl)c3oc2c1)c1ccccc1[N+](=O)[O-]`, for which the CC50 at 120 h in [1] is above 100 µM. For the same compound, the IC50 in the data set with Hepatitis B virus [2] is 10.9 µM; in the data set on Hepatitis B virus [3], above 50 µM. In data set [4], the selectivity ratio at 120 h is above 9. Further, in data set [5], the solubility was below 1 µg/mL.
In the case of `O=C(Nc1ccc2c(=O)c3cccc(F)c3oc2c1)c1ccccc1Cl`, the cytotoxic concentration (CC50) at 120 h in data set [1] is above 100 µM. Further, the IC50 in the data set on Hepatitis B virus [2] was 2.62 µM; with Hepatitis B virus [3], above 50 µM. Moreover, the selectivity ratio at 120 h in data set [4] is above 38. Also, the solubility in data set [5] is below 1 µg/mL.
For `O=C(Nc1ccc2c(=O)c3cccc(F)c3oc2c1)c1ccccc1`, the Papp in data set [6] came to 0.22 ×10⁻⁶ cm/s. The CC50 at 120 h in [1] was above 100 µM. In addition, the IC50 in the data set on Hepatitis B virus [2] is 1.89 µM; with Hepatitis B virus [3], above 50 µM. Also, the selectivity ratio at 120 h in data set [4] was above 53. In data set [5], this compound had a solubility below 1 µg/mL.
On to `O=C(O)C1CCN(c2cc3oc4c(Cl)cccc4c(=O)c3cc2F)C1` (stereo not drawn), for which the IC50 is 1.17 µM with Hepatitis B virus [2], above 50 µM in the data set on Hepatitis B virus [3] and 7.74 µM in the data set on Hepatitis B virus [7]. For the same compound, the logD (commonly lipophilicity at a set pH, counting ionised and neutral species) in [8] was found to be 1.39.
Regarding `O=C(O)C1CCN(c2ccc3c(=O)c4c(Cl)ccc(Cl)c4oc3c2)C1` (single isomer, unassigned), the Papp in data set [6] came to 1.19 ×10⁻⁶ cm/s. In addition, the IC50 in the data set on Hepatitis B virus [2] was 0.65 µM; with Hepatitis B virus [3] it was above 50 µM; in the data set on Hepatitis B virus [7], 2.61 µM. The concentration in solution in data set [5] (solubility) was 29 µg/mL (≈ 76.7 µM). Besides, the logD in data set [8] is 1.42. Besides, the CLint scaled in data set [9] turned out to be 20.3 mL/min/kg.
With `O=C(O)C1CCN(c2ccc3c(=O)c4c(C(F)(F)F)ccc(Cl)c4oc3c2)C1` (stereo not drawn), the Papp in data set [6] worked out at 1.18 ×10⁻⁶ cm/s. In addition, the IC50 was 0.25 µM with Hepatitis B virus [2], above 50 µM in the data set with Hepatitis B virus [3] and 1.21 µM in the data set on Hepatitis B virus [7]. For the same compound, the concentration in solution in data set [5] (solubility) came to 100 µg/mL (≈ 243 µM). This compound also displayed a logD in [8] of 1.42. Also, the CLint scaled in data set [9] was found to be 11.9 mL/min/kg.
Consider `O=C(O)C1CCN(c2ccc3c(=O)c4c(Cl)ccc(Cl)c4oc3c2)C1` (stereo not drawn), for which the Papp in data set [6] stood at 1.72 ×10⁻⁶ cm/s. In addition, the half-inhibitory concentration (IC50) is 2.36 µM with Hepatitis B virus [2], above 50 µM in the data set with Hepatitis B virus [3] and 1.16 µM with Hepatitis B virus [7]. Further, the concentration in solution in data set [5] (solubility) came to 32 µg/mL (≈ 84.6 µM). This compound displayed a logD in data set [8] of 1.44. In addition, the CLint scaled in [9] turned out to be 34.8 mL/min/kg.
As to `O=C(Nc1ccc2c(=O)c3cccc(F)c3oc2c1)c1ccccc1O`, the CC50 at 120 h in data set [1] stood at 35.1 µM. The IC50 in the data set on Hepatitis B virus [2] was 6.79 µM; with Hepatitis B virus [3] it was above 50 µM. For the same compound, in data set [4], the selectivity ratio at 120 h is 5. Also, the solubility in data set [5] was below 1 µg/mL.
`O=C(O)[C@H]1CCN(c2ccc3c(=O)c4cccc(Cl)c4oc3c2)C1`: the Papp in data set [6] turned out to be 3.02 ×10⁻⁶ cm/s. The IC50 is 1.92 µM in the data set with Hepatitis B virus [2], above 50 µM in the data set with Hepatitis B virus [3] and 1.58 µM with Hepatitis B virus [7]. For the same compound, the solubility in data set [5] was above 430 µg/mL. In [8], this compound returned a log distribution coefficient (logD) of 1.09.
Regarding `O=C(Nc1ccc2c(=O)c3ccccc3oc2c1)c1ccccc1F`, the CC50 at 120 h in [1] was above 50 µM. Moreover, the IC50 in the data set on Hepatitis B virus [2] was 4.03 µM; in the data set with Hepatitis B virus [3] it was above 50 µM. In addition, the selectivity ratio at 120 h in [4] was above 13. For the same compound, the solubility in [5] is below 1 µg/mL.
Take `O=C(Nc1ccc2c(=O)c3cccc(F)c3oc2c1)c1ccccc1F`: the CC50 at 120 h in [1] was above 100 µM. In addition, the IC50 in the data set on Hepatitis B virus [2] is 0.71 µM; with Hepatitis B virus [3] it was above 50 µM; with Hepatitis B virus [7] it was 5.45 µM. In [4], the selectivity ratio at 120 h is above 141. The solubility in data set [5] was below 1 µg/mL. Moreover, in the data set on Hepatitis B virus [10], the result was Active. The CLint scaled in [9] stood at 86.7 mL/min/kg.
In the case of `O=C(Nc1ccc2c(=O)c3cccc(F)c3oc2c1)c1ccncc1F`, the half-maximal cytotoxic concentration (CC50) at 120 h in data set [1] is above 100 µM. The IC50 in the data set with Hepatitis B virus [2] is 2.43 µM; with Hepatitis B virus [3], above 50 µM. The selectivity ratio at 120 h in data set [4] was above 20.6. For the same compound, the solubility in data set [5] is below 1 µg/mL.
The corresponding values for `CN(C(=O)c1ccncc1)c1ccc2c(=O)c3cccc(F)c3oc2c1` are above 100 µM, 18.3 µM, above 50 µM, above 5 and below 1 µg/mL.
The corresponding values for `COc1ccccc1C(=O)Nc1ccc2c(=O)c3cccc(F)c3oc2c1` are above 100 µM, 84.9 µM, above 50 µM, above 1 and below 1 µg/mL.
Take `Cc1cc2c(=O)c3cccc(Cl)c3oc2cc1N1CCC(C(=O)O)C1` (stereo not drawn): the Papp in data set [6] was determined as 1.34 ×10⁻⁶ cm/s. Besides, the IC50 with Hepatitis B virus [2] is 0.75 µM; with Hepatitis B virus [3], above 50 µM; in the data set with Hepatitis B virus [7], 3 µM. In addition, the solubility in [5] was below 465 µg/mL. The compound further displayed a logD in data set [8] of 1.5.
As for `O=C(O)C1CCN(c2ccc3c(=O)c4c(F)ccc(Cl)c4oc3c2)C1` (stereo not drawn), the Papp in data set [6] turned out to be 1.83 ×10⁻⁶ cm/s. The IC50 with Hepatitis B virus [2] was 1.46 µM; in the data set on Hepatitis B virus [3] it was above 50 µM; in the data set with Hepatitis B virus [7], 8.48 µM. Also, the solubility in [5] amounted to 14 µg/mL (≈ 38.7 µM). In addition, in [8], the logD was below -0.5. Besides, the CLint scaled in data set [9] came to 38.4 mL/min/kg.
